From patent US20080064665A1, “Combination approaches to cancer treatment” (priority 2006, published 2008)

System: SiHa cervical cancer xenografts
Experiment: Excision assay of SiHa xenografts (clonogenic log cell kill)
Format: in vivo, CD-1 Fox^nu mice
Settings: SN 28343 91.2 mg/kg, SN 29303 375 mg/kg
Procedure: As for Part 1 except for except where noted below.
Excess compound was discarded.
Date, body weights (used to adjust injection volume), tumor diameter, unique identifier (tail markings), body weight, and volume to be injected were recorded. Animals were dosed with the test articles i.p. following a defined treatment schedule:
18 hours after treatment the mice were culled by cervical dislocation and tumors removed by dissection, in a sterile laminar flow hood. Whole tumor weights were recorded. Tumors were minced using scissors or scalpels until a fine minceate was obtained, and up to 500 mg of minceate was transferred into a pre-tiered Falcon®14 ml test tube containing a sterile magnetic spin bar and re-weighed.
Samples were then incubated in 37° C. water bath for 30 min over a magnetic stirrer.
After incubation any undissociated material was allowed to settle for 1 minute. […] Pellets were re-suspended in 10 ml of medium. Cells/ml was determined using an electronic particle counter (Beckman Coulter Electronics, Z2 model). Samples were then diluted to 1×10^5cells/ml and 6-fold serial dilutions made down to 4.6×10^2cells/ml.
1 ml of each sample was plated in triplicate for each dilution into appropriately labelled Falcon® P-60 tissue culture dishes containing 4 ml of αMEM+10% FCS+PS.
Where possible, all plates were counted; those colonies counted=larger than 50 cells, confirmed with the light microscope. TMTC was recorded for those plates where there were too many colonies to count.
The criteria for selecting the best dilution to use for calculating plating efficiency (PE):
Higher dilution count>100 colonies (average); lower dilution 10-100 colonies, use PE from the dilution with fewer colonies.
Higher dilution count >100; lower dilution count <20, use average data from both.
Higher dilution count <100; lower dilution count <20, use PE from the dilution with more colonies.
Higher dilution count <100; lower dilution count >20, use average data from both. Note: For the 10^5 dilution, take as the “lower limit” colony count a total count of 30, (sum of all replicates).

In the case of `CC(=O)O[C@@]12CO[C@@H]1C[C@H](O)[C@@]1(C)C(=O)[C@H](O)C3=C(C)[C@@H](OC(=O)[C@H](O)[C@@H](NC(=O)OC(C)(C)C)c4ccccc4)C[C@@](O)([C@@H](OC(=O)c4ccccc4)[C@H]21)C3(C)C` [Docetaxel, (2R,3S)-N-carboxy-3-phenylisoserine, N-tert-butyl ester, 13-ester with 5β-20-epoxy-1,2α,4,7β,10β,13α-hexahydroxytax-11-en-9-one 4-acetate 2-benzoate, trihydrate, reference compound], the “cell kill versus controls in excision assay (in words)” value (SiHa human cervical tumor xenograft, docetaxel 65 mg/kg i.p.) is reported as “inactive” and the “Log Cell Kill versus controls (Mean ± SEM)” value (SiHa tumors excised 18 hours after treatment, docetaxel 65 mg/kg, i.p.) is reported as 0.451.
